Laboratory results from ChEMBL document CHEMBL4800726, “Data for DCP probe MSC-4381” (2021).

How the values were obtained:
[1] = molecular target: Delta-type opioid receptor (Homo sapiens, UniProt P41143); assay: GPCRScan assay: inhibition of DOR; design: radioligand conc. used [nm] 1.0 – 2.0, parental cells stable HEK
[2] = molecular target: 5-hydroxytryptamine receptor 1B (Homo sapiens) (UniProt P28222); conditions: Compound concentration 10.0 uM
[3] = molecular target: Sodium-dependent noradrenaline transporter (Homo sapiens) (UniProt P23975); assay: norepinephrine transporter (h) Eurofins-Cerep binding assay; design: ligand concentration 1 nM; conditions: filed as antagonist, Compound concentration 10.0 uM
Sequence of Sodium-dependent noradrenaline transporter (Homo sapiens) (P23975 whole entry): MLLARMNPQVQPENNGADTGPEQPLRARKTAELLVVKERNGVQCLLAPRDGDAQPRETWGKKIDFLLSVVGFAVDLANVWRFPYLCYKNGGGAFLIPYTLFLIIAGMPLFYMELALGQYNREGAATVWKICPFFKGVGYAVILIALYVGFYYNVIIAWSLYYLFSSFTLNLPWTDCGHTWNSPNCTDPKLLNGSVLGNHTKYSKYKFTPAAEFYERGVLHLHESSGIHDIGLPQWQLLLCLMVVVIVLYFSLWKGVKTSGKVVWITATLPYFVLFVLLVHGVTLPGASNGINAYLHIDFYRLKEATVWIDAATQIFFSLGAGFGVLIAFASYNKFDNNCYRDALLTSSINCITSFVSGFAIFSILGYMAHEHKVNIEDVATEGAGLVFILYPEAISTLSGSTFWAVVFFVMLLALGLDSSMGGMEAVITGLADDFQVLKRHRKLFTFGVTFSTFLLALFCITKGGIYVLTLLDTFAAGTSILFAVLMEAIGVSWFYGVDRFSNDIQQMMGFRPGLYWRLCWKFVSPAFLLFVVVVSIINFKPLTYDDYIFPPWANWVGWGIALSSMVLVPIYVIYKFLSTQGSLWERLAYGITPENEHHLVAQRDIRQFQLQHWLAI

[4] = molecular target: Histamine H2 receptor (Homo sapiens) (UniProt P25021); assay: H2 (h) Eurofins-Cerep binding assay; design: ligand concentration 0.075 nM; conditions: filed as antagonist, Compound concentration 10.0 uM
Sequence of Histamine H2 receptor (Homo sapiens) (P25021 whole entry): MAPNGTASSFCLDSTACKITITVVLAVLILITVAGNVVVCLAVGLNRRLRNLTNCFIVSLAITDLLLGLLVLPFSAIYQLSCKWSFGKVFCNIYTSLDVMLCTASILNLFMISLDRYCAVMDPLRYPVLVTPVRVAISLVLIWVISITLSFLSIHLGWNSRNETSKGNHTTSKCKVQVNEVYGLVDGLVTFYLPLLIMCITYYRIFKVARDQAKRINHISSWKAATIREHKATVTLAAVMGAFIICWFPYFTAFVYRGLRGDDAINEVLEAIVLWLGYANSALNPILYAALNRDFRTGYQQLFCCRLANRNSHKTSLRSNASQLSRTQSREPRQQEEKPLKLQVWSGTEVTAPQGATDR

Sequence of Delta-type opioid receptor (P41143 whole entry): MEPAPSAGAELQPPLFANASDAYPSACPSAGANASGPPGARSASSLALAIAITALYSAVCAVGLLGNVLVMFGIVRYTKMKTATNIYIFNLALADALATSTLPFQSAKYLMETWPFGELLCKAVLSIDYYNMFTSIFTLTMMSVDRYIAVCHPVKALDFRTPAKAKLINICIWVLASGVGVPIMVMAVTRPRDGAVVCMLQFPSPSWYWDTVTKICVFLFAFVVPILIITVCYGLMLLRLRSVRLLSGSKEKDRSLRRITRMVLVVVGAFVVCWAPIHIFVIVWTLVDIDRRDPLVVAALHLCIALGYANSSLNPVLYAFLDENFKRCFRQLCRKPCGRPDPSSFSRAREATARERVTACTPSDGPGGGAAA
Sequence of 5-hydroxytryptamine receptor 1B (Homo sapiens) (P28222 whole entry): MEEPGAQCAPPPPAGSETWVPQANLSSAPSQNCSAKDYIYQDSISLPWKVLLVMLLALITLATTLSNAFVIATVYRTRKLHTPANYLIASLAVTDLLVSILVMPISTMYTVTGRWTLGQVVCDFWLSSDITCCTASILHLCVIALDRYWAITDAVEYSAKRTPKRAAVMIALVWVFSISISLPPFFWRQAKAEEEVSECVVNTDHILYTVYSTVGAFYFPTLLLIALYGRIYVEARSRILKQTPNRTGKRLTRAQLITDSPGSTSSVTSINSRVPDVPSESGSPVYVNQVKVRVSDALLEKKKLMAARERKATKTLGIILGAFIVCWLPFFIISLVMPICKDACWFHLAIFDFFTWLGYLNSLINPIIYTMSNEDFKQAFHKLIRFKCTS

Ki ([1]; read-out: Ki)	Ki ([1]; read-out: pKi (converted))	inhibition [2]	% Inhibition of Control Specific Binding (Mean n=2) [3]	% Inhibition of Control Specific Binding (Mean n=2) [4]	Structure (SMILES)
598 nM	589 nM	10.6%			COc1cc(C(=O)O)ncc1C#Cc1ccccc1NS(=O)(=O)c1cccc2c(N(C)C)ccnc12 [MSC-0516]
			30.4%	-16.1%	CCOc1ccc(S(=O)(=O)Nc2ccc(Cl)cc2C#Cc2cnc(C(=O)O)cc2OC)c2ncccc12 [MSC-4381]
